Values of other authors as cited in patent US10863741B2, “Herbicidal compositions” (HOMS, LLC, priority 2015, dated 2020).

Test system: male rats
Details: chronic exposure

Q: With `C=C(C)[C@H]1CC=C(C)CC1` [d-limonene] as the compound, how does the Tumor incidence read?
A: The Tumor incidence was “significant incidence of renal tubular tumors”.
